According to patent US6989263B1, “Method for identifying and using compounds that inactivate HIV-1 and other retroviruses by attacking highly conserved zinc fingers in the viral nucleocapsid protein” (The United States of America as represented by the …, priority 1994, dated 2006):
“Also recorded” adds a separate entry of the source.

These compounds were tested against T1, p7NC (Human immunodeficiency virus type 1 group M subtype B, UniProt P05888) (assay: HPLC analysis of reaction products of purified p7NC with reagent). Details: not given.
T1 construct: The NC protein of HIV-1 (MN) p7NC was expressed in E. coli; made in house; host or cells: E. coli (vector pMAL-c)
Format: biochemical, HIV-1
Set-up: key to Protein (HPLC): reaction products / Protein (HPLC): reaction rate: formation of non-native, intra-protein disulfide links (designated “Disulfides”); some of the reagents form adducts with the cysteine residues as well (designated “Adducts”); slow: “Slow” reactions are those in which greater than 10% of the p7NC protein remained in its native form after the 10 minute incubation with reagent; very slow: “Very slow” reactions are those in which greater than 50% of the p7NC protein remained in its native form after the 10 minute incubation with reagent; fast: “Fast” reactions result in complete transformation of the p7NC protein to non-native conformations during the 10 minute incubation period
Text: Highly purified retroviral NC proteins can be produced by expression from vectors generated through recombinant DNA technology. These proteins when reconstituted with zinc (see, Summers, et al., Protein Science 1:563–567 (1992) for methods), provide the source of the NC proteins containing the zinc fingers that are the targets for attack by the compounds of this invention. When the zinc fingers in NC proteins react with identified compounds, the reaction produces a covalent change in the NC protein, and the modified protein can be separated from the unreacted protein by, for example, reversed phase HPLC.
Samples of p7NC and apo-p7 were reacted with varying amounts of cupric chloride and resulting products separated by HPLC. The reactions were carried out using 44.3 μM protein (p7NC or apo-p7) in 0.1 M Tris-HCl, pH 7.4, for 6 minutes at room temperature with varying concentrations of CuCl2 to achieve the indicated ratios of reactants, in a final volume of 0.7 ml. Chromatography was carried out on the resulting products at pH 2 (0.05% trifluoroacetic acid) on μBondapak™ C-18 (3.9×300 mm) at 1.0 ml/minute using an acetonitrile gradient (0–17%, 20 ml; 17–20%, 60 ml; 20–60%, 10 ml). Elution positions of unreacted protein (p7NC or apo-p7) are indicated as apo-p7.
A two-fold excess of NOBA was reacted with p7NC, and the products were separated by HPLC (FIG. 10) as described above for Cu^+2 and p7NC. Elution positions for the reactants (NOBA and unreacted p7NC) and products, reacted p7NC, NOBA, HABA and AzoxyBA are indicated and an elution profile is included in FIG. 10. NOBA and AzoxyBA were supplied by Octamer, Inc. (Mill Valley, Calif.) and used as HPLC standards.
The disulfide reagent of choice (each available from the Aldrich Chemical Company (Milwaukee, Wis.)) was incubated for 10 minutes with purified p7NC protein (63 μM) at a ratio of 6 molecules of reagent to 1 molecule of NC protein (there are 6 cysteine thiols per NC protein). The formation of non-native protein conformations was monitored by HPLC as described above. […] Generally, the inactivation proceeds by formation of non-native, intra-protein disulfide links (designated “Disulfides”), but some of the reagents form adducts with the cysteine residues as well (designated “Adducts”). “Slow” reactions are those in which greater than 10% of the p7NC protein remained in its native form after the 10 minute incubation with reagent. “Very slow” reactions are those in which greater than 50% of the p7NC protein remained in its native form after the 10 minute incubation with reagent. “Fast” reactions result in complete transformation of the p7NC protein to non-native conformations during the 10 minute incubation period.

Row | SMILES | reaction with purified p7NC (HPLC), in words
1 | NC(=O)SCC(=O)NNc1ccccc1 [2-(Carbamoylthio)-Acetic Acid 2-Phenylhydrazide] | caused intra-chain disulfide formation
2 | CCN1C(=O)C=CC1=O [NEM, N-ethylmaleimide] | form adducts with the p7NC protein

Same assay, conditions: 63 μM p7NC, 6 reagent : 1 protein, 10 minutes

Row | SMILES | Protein (HPLC): reaction products | Protein (HPLC): reaction rate
3 | O=[N+]([O-])c1ccc(SSc2ccc([N+](=O)[O-])cc2)cc1 [4-Nitrophenyl Disulfide] | Disulfides; also recorded: Adducts | (slow) (“Slow” reactions are those in which greater than 10% of the p7NC protein remained in its native form after the 10 minute incubation with reagent)
4 | CCN(CC)CCSSCCN(CC)CC [2-(Diethylamino)ethyl Disulfide] | Disulfides | –
5 | O[C@@H]1CSSC[C@H]1O (relative stereo) [Trans-1,2-Dithiane-4,5-Diol] | Disulfides | (slow) (“Slow” reactions are those in which greater than 10% of the p7NC protein remained in its native form after the 10 minute incubation with reagent)
6 | CCOC(=O)Nc1ccccc1SSc1ccccc1NC(=O)OCC [2-(Ethoxycarboxamido)phenyl Disulfide] | Disulfides; also recorded: Adducts | –
7 | CSSC(=O)c1ccccc1 [Benzoylmethyl Disulfide] | Adducts | –
8 | Nc1cc(Cl)ccc1SSc1ccc(Cl)cc1N [2-Amino-4-Chlorophenyl Disulfide] | Disulfides; also recorded: Adducts | (fast)
9 | Cc1ccc(SSc2ccc([N+](=O)[O-])cc2)cc1 [4-Nitrophenyl p-Tolyl Disulfide] | Disulfides; also recorded: Adducts | (slow) (“Slow” reactions are those in which greater than 10% of the p7NC protein remained in its native form after the 10 minute incubation with reagent)
10 | O=[N+]([O-])c1cc(SSc2ccc(Cl)c([N+](=O)[O-])c2)ccc1Cl [4-Chloro-3-Nitrophenyl Disulfide] | Disulfides; also recorded: Adducts | –
11 | O=[N+]([O-])c1ccc(Cl)c(SSc2cc([N+](=O)[O-])ccc2Cl)c1 [2-Chloro-5-Nitrophenyl Disulfide] | Disulfides | –
12 | Cc1ccc(SSc2ccc([N+](=O)[O-])cc2[N+](=O)[O-])cc1 [2,4-Dinitrophenyl p-Tolyl Disulfide] | Disulfides; also recorded: Adducts | (fast)
13 | O=C(O)CCSSCCC(=O)O [3,3-Dithiodipropionic Acid] | Disulfides | (slow) (“Slow” reactions are those in which greater than 10% of the p7NC protein remained in its native form after the 10 minute incubation with reagent)
14 | Nc1c(SSc2ccc3ccccc3c2N)ccc2ccccc12 [2,2-Dithiobis(1-Naphtylamine)] | Disulfides; also recorded: Adducts | (fast)
15 | O=[N+]([O-])c1cccc(SSc2cccc([N+](=O)[O-])c2)c1 [3-Nitrophenyl Disulfide] | Disulfides | –
16 | CCOC(=S)SSC(=S)OCC [O,O-Diethyl Dithiobis-(Thioformate)] | Disulfides; also recorded: Adducts | –
17 | Cc1cc(SSc2cc(C)c3ccccc3n2)nc2ccccc12 [4-Methyl-2-Quinolyl Disulfide] | Disulfides; also recorded: Adducts | (slow) (“Slow” reactions are those in which greater than 10% of the p7NC protein remained in its native form after the 10 minute incubation with reagent)
18 | c1ccc2nc(SSc3ccc4ccccc4n3)ccc2c1 [2-Quinolyl Disulfide] | Disulfides; also recorded: Adducts | (slow) (“Slow” reactions are those in which greater than 10% of the p7NC protein remained in its native form after the 10 minute incubation with reagent)
19 | CC(=O)Nc1ccccc1SSc1ccccc1NC(C)=O [2-Acetamidophenyl Disulfide] | Disulfides; also recorded: (Adducts) | –
20 | CS(=O)(=O)c1ccc(SSc2ccc(S(C)(=O)=O)cc2[N+](=O)[O-])c([N+](=O)[O-])c1 [4-Methylsulfonyl-2-Nitrophenyl Disulfide] | Disulfides | –
21 | CC(C)OC(=S)SSC(=S)OC(C)C [Isopropylxanthic Disulfide] | Disulfides | –
22 | c1cc(SSc2ccncc2)ccn1 [Aldrithiol-4] | Disulfides | –
23 | Clc1cc(Cl)c(SSc2cc(Cl)c(Cl)cc2Cl)cc1Cl [2,4,5-Trichlorophenyl Disulfide] | Disulfides | –
24 | Nc1ccccc1SSc1ccccc1N [2-Aminophenyl Disulfide] | Disulfides; also recorded: Adducts | (slow) (“Slow” reactions are those in which greater than 10% of the p7NC protein remained in its native form after the 10 minute incubation with reagent)
25 | COc1cccc(SSc2cccc(OC)c2OC)c1OC [2,3-Dimethoxyphenyl Disulfide] | Adducts | –
26 | CC(=O)Nc1ccc(SSc2ccc(NC(C)=O)cc2)cc1 [4-Acetamidophenyl Disulfide] | Disulfides | (slow) (“Slow” reactions are those in which greater than 10% of the p7NC protein remained in its native form after the 10 minute incubation with reagent)
27 | Cc1ccc([S+]([O-])[S+]([O-])c2ccc(C)cc2)cc1 (stereo not drawn) [p-Tolyl Disulfoxide] | Disulfides | (slow) (“Slow” reactions are those in which greater than 10% of the p7NC protein remained in its native form after the 10 minute incubation with reagent)
28 | O=C(O)c1cc(SSc2ccc([N+](=O)[O-])c(C(=O)O)c2)ccc1[N+](=O)[O-] [5,5-Dithiobis(2-Nitrobenzoic Acid)] | Disulfides; also recorded: Adducts | (fast)

Same assay, conditions: after a 10 minute incubation

Row | SMILES | p7NC species in non-native conformations
29 | NC(=O)SCC(=O)NNc1ccccc1 [2-(Carbamoylthio)-Acetic Acid 2-Phenylhydrazide] | most
